# From ChEMBL document CHEMBL1201862, “PubChem BioAssay data set” (2004)
#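 Each compound was tested at five concentrations against cells in 96-well plates for 48 hours. GI50 = concentration required for 50% inhibition of growth.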 Activity calls are given as the source filed them. Rule as the data show it: active = GI50 up to about 1.1 µM and inactive = higher.
# Assays:
# Assay in all cases: NCI tumour cell line growth inhibition, 48 h
# A549 = system: A549
# COLO 205 = system: COLO 205
# HCC 2998 = system: HCC 2998
# HCT-116 = system: HCT-116
# IGROV-1 = system: IGROV-1
# K562 = system: K562
# KM12 = system: KM12
# LOX IMVI = system: LOX IMVI
# MOLT-4 = system: MOLT-4
# NCI-H226 = system: NCI-H226
# NCI-H460 = system: NCI-H460
# NCI-H522 = system: NCI-H522
# RPMI-8226 = system: RPMI-8226
# SF-295 = system: SF-295
# SK-MEL-28 = system: SK-MEL-28
# SN12C = system: SN12C
# SNB-19 = system: SNB-19
# SR = system: SR
# SW-620 = system: SW-620
# UO-31 = system: UO-31
SMILES,GI50 (A549),GI50 (COLO 205),GI50 (HCC 2998),GI50 (HCT-116),GI50 (IGROV-1),GI50 (K562),GI50 (KM12),GI50 (LOX IMVI),GI50 (MOLT-4),GI50 (NCI-H226),GI50 (NCI-H460),GI50 (NCI-H522),GI50 (RPMI-8226),GI50 (SF-295),GI50 (SK-MEL-28),GI50 (SN12C),GI50 (SNB-19),GI50 (SR),GI50 (SW-620),GI50 (UO-31)
Cc1ccc(S(=O)(=O)N/N=c2/sc3ccccc3n2C)cc1,> 100 µM (inactive),> 100 µM (inactive),> 100 µM (inactive),> 100 µM (inactive),> 100 µM (inactive),> 100 µM (inactive),> 100 µM (inactive),> 100 µM (inactive),> 100 µM (inactive),> 100 µM (inactive),> 100 µM (inactive),33.7 µM (inactive),> 100 µM (inactive),> 100 µM (inactive),> 100 µM (inactive),> 100 µM (inactive),> 100 µM (inactive),> 100 µM (inactive),> 100 µM (inactive),> 100 µM (inactive)
Nc1cccc(C2CCCc3c2[nH]c2ccccc32)c1 (stereo not given),17.5 µM (inactive),19.8 µM (inactive),22.6 µM (inactive),13.4 µM (inactive),17.3 µM (inactive),13.6 µM (inactive),17.5 µM (inactive),12.4 µM (inactive),20.6 µM (inactive),25.7 µM (inactive),19.5 µM (inactive),15.8 µM (inactive),19.1 µM (inactive),20.8 µM (inactive),26.5 µM (inactive),17 µM (inactive),12 µM (inactive),9.08 µM (inactive),17.4 µM (inactive),26 µM (inactive)
Cc1ccc(C(=O)N/N=C(\N=N\c2cccc(Cl)c2)c2ccc(N(CCC#N)CCC#N)cc2C)cc1,> 100 µM (inactive),> 100 µM (inactive),> 100 µM (inactive),> 100 µM (inactive),> 100 µM (inactive),> 100 µM (inactive),> 100 µM (inactive),> 100 µM (inactive),41.5 µM (inactive),> 100 µM (inactive),> 100 µM (inactive),> 100 µM (inactive),91.8 µM (inactive),> 100 µM (inactive),> 100 µM (inactive),> 100 µM (inactive),> 100 µM (inactive),> 100 µM (inactive),> 100 µM (inactive),> 100 µM (inactive)
[N-]=[N+]=Nc1ccc2c(c1)Sc1ccccc1N2CCCCN1CCN(C(=O)CCNC(=O)Cc2ccc(C(=O)c3ccccc3)cc2)CC1,4.52 µM (inactive),3.39 µM (inactive),2.53 µM (inactive),3.54 µM (inactive),6.1 µM (inactive),1.68 µM (inactive),3.31 µM (inactive),2.23 µM (inactive),1.54 µM (inactive),13.6 µM (inactive),3.72 µM (inactive),2.45 µM (inactive),1.58 µM (inactive),3.78 µM (inactive),4.81 µM (inactive),7.26 µM (inactive),8.17 µM (inactive),2.08 µM (inactive),9.66 µM (inactive),5.32 µM (inactive)
O=C1CC(Nc2ccccc2)c2c(Cl)sc(Cl)c21 (stereo not given),2.05 µM (inactive),0.906 µM (active),1.76 µM (inactive),1.19 µM (inactive),1.61 µM (inactive),1.12 µM (active),0.483 µM (active),0.39 µM (active),0.484 µM (active),8.65 µM (inactive),6.37 µM (inactive),0.139 µM (active),< 0.01 µM (active),5.11 µM (inactive),1.86 µM (inactive),1.51 µM (inactive),5.19 µM (inactive),0.52 µM (active),0.369 µM (active),1.11 µM (active)
O=C(COc1ccc(OCC(=O)N2C(=O)CN(c3ccccc3)C2=S)cc1)N1C(=O)CN(c2ccccc2)C1=S,> 56.1 µM (inactive),> 100 µM (inactive),> 58.5 µM (inactive),> 61.4 µM (inactive),> 25 µM (inactive),> 100 µM (inactive),> 51.5 µM (inactive),> 25 µM (inactive),> 25 µM (inactive),> 100 µM (inactive),> 57.7 µM (inactive),> 61.2 µM (inactive),> 100 µM (inactive),> 53 µM (inactive),> 100 µM (inactive),> 59.2 µM (inactive),> 48.4 µM (inactive),> 25 µM (inactive),> 100 µM (inactive),> 56.6 µM (inactive)
COC(=O)/C=C\C(C#N)(C#N)/N=C/c1ccccc1,17.8 µM (inactive),1.62 µM (inactive),19.4 µM (inactive),1.77 µM (inactive),12.9 µM (inactive),3.37 µM (inactive),17.5 µM (inactive),2.32 µM (inactive),0.953 µM (active),9.55 µM (inactive),18.7 µM (inactive),0.471 µM (active),0.573 µM (active),18.7 µM (inactive),6 µM (inactive),11.1 µM (inactive),23.9 µM (inactive),0.897 µM (active),1.46 µM (inactive),2.42 µM (inactive)
